Laboratory results reported in PubChem BioAssay (NCI).
Several values for one entry are separate records, joined by “and”; a condition that tells them apart may be missing. Equal entries are not always repeated.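 In this assay, cells in 96-well plates receive the compound at five concentrations for 48 hours. Endpoints are linearly interpolated between the surrounding concentrations. GI50 marks 50% less growth. TGI: concentration producing complete growth inhibition.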

Experiments:
Test in all cases: growth of human tumour cells (NCI), 48 h
LOX IMVI melanoma = tested on: LOX IMVI melanoma
SK-MEL-28 melanoma = tested on: SK-MEL-28 melanoma
HCT-116 colon = tested on: HCT-116 colon
NCI-H226 lung = tested on: NCI-H226 lung
IGROV1 ovarian = tested on: IGROV1 ovarian
MDA-MB-231 breast = tested on: MDA-MB-231 breast
HL-60(TB) leukemia = tested on: HL-60(TB) leukemia
EKVX NSCLC = tested on: EKVX NSCLC
HCC-2998 colon = tested on: HCC-2998 colon
MCF7 breast = tested on: MCF7 breast

O=C1NC(N/N=C\C(O)C(O)C(O)C(O)CO)=N/C1=C/c1ccccc1 (stereo not drawn)
GI50 (LOX IMVI melanoma): > 100 µM and 17.7 µM | TGI (LOX IMVI melanoma): > 100 µM and 36.4 µM | GI50 (SK-MEL-28 melanoma): 37.3 µM and 24 µM and > 100 µM | TGI (SK-MEL-28 melanoma): > 100 µM | GI50 (HCT-116 colon): 52.2 µM and 16.4 µM and > 100 µM | TGI (HCT-116 colon): > 100 µM and 33.8 µM | GI50 (NCI-H226 lung): > 100 µM and 19.5 µM | TGI (NCI-H226 lung): > 100 µM and 40.8 µM | GI50 (IGROV1 ovarian): > 100 µM and 16.2 µM | TGI (IGROV1 ovarian): > 100 µM and 33.3 µM | GI50 (MDA-MB-231 breast): 51.7 µM and 15.4 µM and > 100 µM | TGI (MDA-MB-231 breast): > 100 µM and 33.4 µM | GI50 (HL-60(TB) leukemia): 77.2 µM and 41.8 µM and > 100 µM | TGI (HL-60(TB) leukemia): > 100 µM | GI50 (EKVX NSCLC): > 100 µM and 19.9 µM | TGI (EKVX NSCLC): > 100 µM and 51 µM | GI50 (HCC-2998 colon): > 100 µM and 13.5 µM | TGI (HCC-2998 colon): > 100 µM and 41.7 µM | GI50 (MCF7 breast): 40.3 µM and 13.5 µM and > 61.4 µM | TGI (MCF7 breast): > 100 µM and 30.7 µM

O=[N+]([O-])c1cc[n+]([O-])c2ccccc12
GI50 (LOX IMVI melanoma): 0.156 µM | TGI (LOX IMVI melanoma): 0.418 µM | GI50 (SK-MEL-28 melanoma): 1.24 µM | TGI (SK-MEL-28 melanoma): 2.64 µM | GI50 (HCT-116 colon): 0.0698 µM | TGI (HCT-116 colon): 0.316 µM | GI50 (NCI-H226 lung): 0.311 µM | TGI (NCI-H226 lung): 1.38 µM | GI50 (IGROV1 ovarian): 0.259 µM | TGI (IGROV1 ovarian): 1.03 µM | GI50 (MDA-MB-231 breast): 0.282 µM | TGI (MDA-MB-231 breast): 1.48 µM | GI50 (HL-60(TB) leukemia): 1.05 µM | TGI (HL-60(TB) leukemia): 4.29 µM | GI50 (EKVX NSCLC): 1.22 µM | TGI (EKVX NSCLC): 3.98 µM | GI50 (HCC-2998 colon): 0.347 µM | TGI (HCC-2998 colon): 0.8 µM | GI50 (MCF7 breast): 0.047 µM | TGI (MCF7 breast): 2.2 µM

C1=C(c2ccccc2)C(N2CCOCC2)Oc2ccccc21 (stereo not drawn)
TGI (LOX IMVI melanoma): > 100 µM | TGI (SK-MEL-28 melanoma): > 100 µM | TGI (HCT-116 colon): > 100 µM | TGI (NCI-H226 lung): > 100 µM | TGI (IGROV1 ovarian): > 100 µM | TGI (MDA-MB-231 breast): > 100 µM | TGI (HL-60(TB) leukemia): > 100 µM | TGI (EKVX NSCLC): > 100 µM | TGI (HCC-2998 colon): > 100 µM | TGI (MCF7 breast): > 100 µM

COc1c(C(C)=O)c(OCCCCOc2c(C(C)=O)c(OC)c3ccoc3c2OC)c(OC)c2occc12
GI50 (LOX IMVI melanoma): 4.81 µM | TGI (LOX IMVI melanoma): > 100 µM | GI50 (SK-MEL-28 melanoma): 2.32 µM | TGI (SK-MEL-28 melanoma): 7.05 µM | GI50 (HCT-116 colon): 3.71 µM | TGI (HCT-116 colon): > 100 µM | TGI (NCI-H226 lung): > 100 µM | GI50 (IGROV1 ovarian): 7.58 µM | TGI (IGROV1 ovarian): > 100 µM | TGI (MDA-MB-231 breast): > 100 µM | GI50 (HL-60(TB) leukemia): 1.85 µM | TGI (HL-60(TB) leukemia): 4.02 µM | GI50 (EKVX NSCLC): 2.48 µM | TGI (EKVX NSCLC): > 100 µM | GI50 (HCC-2998 colon): > 100 µM | TGI (HCC-2998 colon): > 100 µM | GI50 (MCF7 breast): 3.11 µM | TGI (MCF7 breast): > 100 µM

N#CC(CCN1CCC(Nc2ccccc2)(c2nnnn2C2CCCCC2)CC1)(c1ccccc1)c1ccccc1
TGI (LOX IMVI melanoma): > 100 µM | TGI (SK-MEL-28 melanoma): > 100 µM | TGI (HCT-116 colon): > 100 µM | TGI (NCI-H226 lung): > 100 µM | TGI (IGROV1 ovarian): > 100 µM | TGI (MDA-MB-231 breast): > 100 µM | TGI (HL-60(TB) leukemia): > 100 µM | TGI (EKVX NSCLC): > 100 µM | TGI (HCC-2998 colon): > 100 µM | TGI (MCF7 breast): > 100 µM

CCOc1ccc2c(-c3ccnc(Nc4cc(OC)cc(C(F)(F)F)c4)n3)cnn2n1
GI50 (LOX IMVI melanoma): 15.7 µM | TGI (LOX IMVI melanoma): > 25 µM | GI50 (SK-MEL-28 melanoma): > 23 µM | TGI (SK-MEL-28 melanoma): > 25 µM | GI50 (HCT-116 colon): 6.42 µM | TGI (HCT-116 colon): > 25 µM | GI50 (NCI-H226 lung): > 25 µM | TGI (NCI-H226 lung): > 25 µM | GI50 (IGROV1 ovarian): 4.87 µM | TGI (IGROV1 ovarian): > 25 µM | GI50 (MDA-MB-231 breast): 9.6 µM | TGI (MDA-MB-231 breast): > 22.5 µM | GI50 (HL-60(TB) leukemia): > 25 µM | TGI (HL-60(TB) leukemia): > 25 µM | GI50 (EKVX NSCLC): > 25 µM | TGI (EKVX NSCLC): > 25 µM | GI50 (HCC-2998 colon): > 25 µM | TGI (HCC-2998 colon): > 25 µM | GI50 (MCF7 breast): 1.13 µM | TGI (MCF7 breast): > 25 µM

OCCCCC#Cc1ccccc1C#Cc1ccc(O)cc1
GI50 (LOX IMVI melanoma): 13.6 µM | TGI (LOX IMVI melanoma): 27.7 µM | GI50 (SK-MEL-28 melanoma): 14.2 µM | TGI (SK-MEL-28 melanoma): 27.8 µM | GI50 (HCT-116 colon): 16.6 µM | TGI (HCT-116 colon): 31.8 µM | GI50 (NCI-H226 lung): 18.3 µM | TGI (NCI-H226 lung): 39.1 µM | GI50 (IGROV1 ovarian): 9.56 µM | TGI (IGROV1 ovarian): 22.8 µM | GI50 (MDA-MB-231 breast): 7.55 µM | TGI (MDA-MB-231 breast): 21.4 µM | GI50 (HL-60(TB) leukemia): 18.3 µM | TGI (HL-60(TB) leukemia): 40.5 µM | GI50 (EKVX NSCLC): 17 µM | TGI (EKVX NSCLC): 37 µM | GI50 (HCC-2998 colon): 15.4 µM | TGI (HCC-2998 colon): 30.4 µM | GI50 (MCF7 breast): 17.4 µM | TGI (MCF7 breast): 49.2 µM

N#Cc1nc(-c2ccc(F)cc2)oc1S(=O)(=O)N1CCCCC1
GI50 (LOX IMVI melanoma): 1.19 µM | TGI (LOX IMVI melanoma): 2.69 µM | GI50 (SK-MEL-28 melanoma): 1.75 µM | TGI (SK-MEL-28 melanoma): 3.28 µM | GI50 (HCT-116 colon): 1.79 µM | TGI (HCT-116 colon): 3.54 µM | GI50 (NCI-H226 lung): 19.1 µM | TGI (NCI-H226 lung): 42.1 µM | GI50 (IGROV1 ovarian): 1.75 µM | TGI (IGROV1 ovarian): 3.5 µM | GI50 (MDA-MB-231 breast): 1.86 µM | TGI (MDA-MB-231 breast): 3.54 µM | GI50 (HL-60(TB) leukemia): 2.54 µM | TGI (HL-60(TB) leukemia): 7.02 µM | GI50 (EKVX NSCLC): 1.86 µM | TGI (EKVX NSCLC): 3.96 µM | GI50 (HCC-2998 colon): 1.8 µM | TGI (HCC-2998 colon): 3.46 µM | GI50 (MCF7 breast): 1.69 µM | TGI (MCF7 breast): 3.82 µM

Fc1ccc(-c2ncn(C3CCNCC3)c2-c2ccnc(Oc3ccc4c(c3)OCO4)n2)cc1
GI50 (LOX IMVI melanoma): 12.3 µM | TGI (LOX IMVI melanoma): > 25 µM | GI50 (SK-MEL-28 melanoma): 8.34 µM | TGI (SK-MEL-28 melanoma): > 23.1 µM | GI50 (HCT-116 colon): 16.8 µM | TGI (HCT-116 colon): > 25 µM | GI50 (NCI-H226 lung): > 17 µM | TGI (NCI-H226 lung): > 25 µM | GI50 (IGROV1 ovarian): 13.9 µM | TGI (IGROV1 ovarian): > 25 µM | GI50 (MDA-MB-231 breast): 10.5 µM | TGI (MDA-MB-231 breast): > 25 µM | GI50 (HL-60(TB) leukemia): > 21.3 µM | TGI (HL-60(TB) leukemia): > 25 µM | GI50 (EKVX NSCLC): > 25 µM | TGI (EKVX NSCLC): > 25 µM | GI50 (HCC-2998 colon): 11.9 µM | TGI (HCC-2998 colon): > 25 µM | GI50 (MCF7 breast): 9.14 µM | TGI (MCF7 breast): > 25 µM

COC(=O)c1c2c(c(C)[n+]([O-])c1C)C(=O)C=C(NCc1ccccc1)C2=O
GI50 (LOX IMVI melanoma): 0.34 µM | TGI (LOX IMVI melanoma): 1.53 µM | GI50 (SK-MEL-28 melanoma): 1.63 µM | TGI (SK-MEL-28 melanoma): 3.8 µM | GI50 (HCT-116 colon): 0.303 µM | TGI (HCT-116 colon): 1.05 µM | GI50 (NCI-H226 lung): 1.78 µM | TGI (NCI-H226 lung): 3.74 µM | GI50 (IGROV1 ovarian): 0.492 µM | TGI (IGROV1 ovarian): 1.87 µM | GI50 (MDA-MB-231 breast): 0.326 µM | TGI (MDA-MB-231 breast): 2.68 µM | GI50 (HL-60(TB) leukemia): 0.317 µM | TGI (HL-60(TB) leukemia): 1.19 µM | GI50 (EKVX NSCLC): 1.14 µM | TGI (EKVX NSCLC): 2.55 µM | GI50 (HCC-2998 colon): 0.432 µM | TGI (HCC-2998 colon): 1.7 µM | GI50 (MCF7 breast): 0.26 µM | TGI (MCF7 breast): 0.892 µM
